Values joined by “and” are separate entries in the source; they are usually repeats but may differ in a detail not shown here. Equal entries are not always repeated.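 Results reflect a 48-hour exposure of cells in 96-well plates to compound at five concentrations. At the GI50, growth is halved. The concentration for full growth arrest is given as TGI.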
Key:
Experiment in all cases: growth of human tumour cells (NCI), 48 h
A549 NSCLC = system: A549 NSCLC
HOP-92 NSCLC = system: HOP-92 NSCLC
UO-31 renal = system: UO-31 renal
ACHN renal = system: ACHN renal
SN12C renal = system: SN12C renal
NCI-H522 lung = system: NCI-H522 lung
MOLT-4 leukemia = system: MOLT-4 leukemia
DU-145 prostate = system: DU-145 prostate
NCI/ADR-RES ovarian = system: NCI/ADR-RES ovarian
HS 578T breast = system: HS 578T breast

Row | Structure (SMILES) | TGI (A549 NSCLC) | TGI (HOP-92 NSCLC) | TGI (UO-31 renal) | TGI (ACHN renal) | TGI (SN12C renal) | TGI (NCI-H522 lung) | TGI (MOLT-4 leukemia) | TGI (DU-145 prostate) | TGI (NCI/ADR-RES ovarian) | TGI (HS 578T breast) | GI50 (A549 NSCLC) | GI50 (HOP-92 NSCLC) | GI50 (DU-145 prostate) | GI50 (UO-31 renal) | GI50 (NCI/ADR-RES ovarian) | GI50 (ACHN renal) | GI50 (SN12C renal) | GI50 (HS 578T breast) | GI50 (NCI-H522 lung) | GI50 (MOLT-4 leukemia)
1 | COC(=O)/C=C1\CCC2[C@@H](C(=O)CC3[C@]2(C)CCC[C@@]3(C)C(=O)OC)C1C (stereo not given in full) | 52 µM | 50.6 µM | 44.4 µM | 63.9 µM | 70.8 µM | 36 µM | 25.9 µM | – | – | – | – | – | – | – | – | – | – | – | – | –
2 | Nc1nc(-c2cccnc2)cc(-c2cc(-c3cccnc3)nc(N)n2)n1 | > 100 µM | > 100 µM | > 100 µM | > 100 µM | > 100 µM | > 100 µM | > 100 µM | > 100 µM | > 100 µM | > 100 µM | – | – | – | – | – | – | – | – | – | –
3 | Cc1nc2ccccc2c(=O)n1/N=C(\N=Nc1ccccc1)c1ccccc1Cl | > 100 µM | 64.2 µM | > 100 µM | > 100 µM | > 68.1 µM | > 74.4 µM | > 100 µM | – | – | – | – | – | – | – | – | – | – | – | – | –
4 | CCOc1ccc(-c2nc3ccc(-c4nc5ccc(N6CCN(C)CC6)cc5[nH]4)cc3[nH]2)cc1 | 3.13 µM and 3.35 µM | 2.27 µM and 1.52 µM | 7.7 µM | 1.89 µM and 2.7 µM | 1.61 µM | 0.442 µM | 1.81 µM | 1.57 µM | > 100 µM | 2.52 µM | 1.24 µM and 1.04 µM | 0.213 µM and 0.0913 µM | 0.402 µM | 2.54 µM | 5.4 µM | 0.631 µM and 1.18 µM | 0.342 µM | 0.476 µM | 0.09 µM | 0.299 µM
5 | Cc1cc(-c2nc3sc(C)cn3c2/C=N/N=C(N)N)c(C)s1 | 48.9 µM | 8.21 µM | > 100 µM | 34.4 µM | 28.3 µM | > 100 µM | > 100 µM | 23 µM | 29.2 µM | – | 21.5 µM | 3.03 µM | 6.11 µM | 32.7 µM | 14.6 µM | 18.7 µM | 14 µM | – | 25.7 µM | > 100 µM
6 | COc1cc2c3c(n(CCCN=[N+]=[N-])c(=O)c2cc1OC)-c1ccccc1C3=O | > 100 µM | 68.9 µM | > 100 µM | 4.65 µM | > 100 µM | > 100 µM | 3.38 µM | > 100 µM | 75.2 µM | – | 26.2 µM | 7 µM | 28 µM | > 100 µM | 4.59 µM | 1.21 µM | 13.7 µM | – | 44.8 µM | 0.702 µM
7 | C[C@]12Cc3conc3C(O)=C1CC[C@@H]1C2CC[C@@]2(C)C1CC[C@@H]2O (stereo not given in full) | 85.2 µM | 63.6 µM | 53.3 µM | > 100 µM | > 100 µM | 13.5 µM | 37.7 µM | – | – | – | – | – | – | – | – | – | – | – | – | –
8 | O=C1CCCc2ccc([N+](=O)[O-])c(O)c21 | > 100 µM | > 100 µM | > 100 µM | > 100 µM | > 100 µM | > 100 µM | > 100 µM | – | – | – | – | – | – | – | – | – | – | – | – | –
9 | C=CC12CCCCC1CC(C(=O)OC)=C(O)C2 (stereo not given) | > 100 µM | > 100 µM | > 100 µM | > 100 µM | > 100 µM | > 100 µM | > 100 µM | – | – | – | – | – | – | – | – | – | – | – | – | –
10 | O=S(O)O.O=S(O)O.[Co].[NH2-].[NH2-].[NH2-].[NH2-] | > 100 µM | > 100 µM | > 100 µM | > 100 µM | > 100 µM | > 100 µM | – | > 100 µM | > 100 µM | > 100 µM | > 100 µM | > 100 µM | > 100 µM | > 100 µM | > 100 µM | > 100 µM | > 100 µM | > 100 µM | > 100 µM | –
11 | O=S1Nc2cccc(C(F)(F)F)c2S1 (stereo not given) | > 100 µM | 73.2 µM | > 100 µM | > 100 µM | > 100 µM | > 100 µM | 55.4 µM | – | – | – | – | – | – | – | – | – | – | – | – | –
12 | N#CC(Sc1ccccc1)C(N)=O (stereo not given) | > 100 µM | > 100 µM | > 100 µM | – | > 100 µM | > 100 µM | > 100 µM | – | – | – | – | – | – | – | – | – | – | – | – | –
13 | c1cc[c]([Ge]([O]c2cccc3cccnc23)([c]2ccccc2)[c]2ccccc2)cc1 | 21.7 µM | 25.5 µM | 23.7 µM | 20.8 µM | 16.5 µM | 3.74 µM | – | – | – | – | 5.34 µM | 12.4 µM | – | 11.5 µM | – | 8.83 µM | 4.52 µM | – | 1.9 µM | –
14 | COC(=O)[C@H](Cc1cn(C)cn1)NC(=O)[C@H](CC(C)C)NC(=O)Nc1cc(C(F)(F)F)cc(C(F)(F)F)c1 | – | > 10 µM | > 10 µM | > 10 µM | > 10 µM | – | > 10 µM | > 10 µM | > 10 µM | > 10 µM | – | > 10 µM | > 10 µM | > 10 µM | > 10 µM | > 10 µM | 6.69 µM | > 10 µM | – | 3.4 µM
15 | CCCCCCCCCCCCCCCCn1cc[n+](C)c1 | 1.6 µM | 1.68 µM | 2.24 µM | 2.01 µM | 1.89 µM | – | 1.5 µM | 1.94 µM | 18.4 µM | 1.75 µM | 0.326 µM | 0.34 µM | 0.651 µM | 1.04 µM | 1.95 µM | 0.613 µM | 0.667 µM | 0.383 µM | – | 0.306 µM
16 | CC(=O)OCC1OC(SC2=N/C(=C\c3ccc(Br)s3)C(=O)N2c2ccccc2)C(OC(C)=O)C(OC(C)=O)C1OC(C)=O (stereo not given) | – | – | > 100 µM | > 100 µM | > 100 µM | > 100 µM and 94.3 µM | > 100 µM | > 100 µM | > 100 µM | 78.4 µM and > 100 µM | – | – | > 100 µM and 42.8 µM | 71.4 µM and 32.7 µM | – | – | – | – | – | > 100 µM and 37.7 µM
17 | O=CN/C=C/c1ccccc1 | > 100 µM | > 100 µM | > 100 µM | > 100 µM | > 100 µM | > 100 µM | > 100 µM | > 100 µM | – | – | – | – | – | – | – | – | – | – | – | –
18 | O=C(O)c1cnc2c(ccc3[nH]cccc32)c1=O | > 100 µM | – | > 100 µM | > 100 µM | > 100 µM | > 100 µM | > 100 µM | – | – | – | – | – | – | – | – | – | – | – | – | –
19 | COc1ccc2cc3c4cc(OC)c(OC)cc4ccn3c2c1 | > 100 µM | > 100 µM | > 100 µM | > 100 µM | > 100 µM | > 100 µM | > 100 µM | – | – | – | – | – | – | – | – | – | – | – | – | –

Source: PubChem BioAssay (NCI)
